Experimental data published in paper PMC6364417, “Kinase inhibitor library screening identifies synergistic drug combinations effective in sensitive and resistant melanoma cells” (Journal of Experimental & Clinical Cancer Research : CR, 2019).

Assays:
Assay in all cases: Kinase inhibitor library screening, PrestoBlue cell viability, 1 or 10 μM, 72 h
[1] = test system: A375-GP cells (Dabrafenib-resistant); details: A375 GP; for cell viability (kinase inhibitor library screening): in %
[2] = test system: A375-XP cells (Vemurafenib-resistant); details: A375 XP; for Cell viability in kinase inhibitor library screening, A375 XP, 1μΜ / Cell viability in kinase inhibitor library screening, A375 XP, 10μΜ: 72 h; for cell viability (kinase inhibitor library screening): in %
[3] = test system: 501Mel-XP cells (Vemurafenib-resistant); details: 501Mel XP, in %; for Cell viability in kinase inhibitor library screening, 501Mel XP, 1μΜ / Cell viability in kinase inhibitor library screening, 501Mel XP, 10μΜ: 72 h
IGR37 cells (parental) = details: IGR37 Parental, in %
501Mel cells (parental) = details: 501Mel Parental, in %
Method in brief: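 Readout: PrestoBlue signal on a monochromator plate reader, given as percent viability relative to untreated controls. Parental and drug-resistant (Vemurafenib XP, Dabrafenib GP) sublines were tested; at least duplicates per line.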

[4] = test system: IGR37-GP cells (Dabrafenib-resistant); details: IGR37 GP; for Cell viability in kinase inhibitor library screening, IGR37 GP, 10μΜ / Cell viability in kinase inhibitor library screening, IGR37 GP, 1μΜ: 72 h; for Cell viability in kinase inhibitor library screening, IGR37 GP, 1μΜ / cell viability (kinase inhibitor library screening): in %
[5] = test system: IGR37-XP cells (Vemurafenib-resistant); details: IGR37 XP
A375 cells (parental) = details: A375 Parental; for Cell viability in kinase inhibitor library screening, A375 Parental, 10μΜ / Cell viability in kinase inhibitor library screening, A375 Parental, 1μΜ: 72 h; for cell viability (kinase inhibitor library screening): in %
[6] = test system: 501Mel-GP cells (Dabrafenib-resistant); details: 501Mel GP, in %; for Cell viability in kinase inhibitor library screening, 501Mel GP, 1μΜ / Cell viability in kinase inhibitor library screening, 501Mel GP, 10μΜ: 72 h

Structure (SMILES) | Cell viability in kinase inhibitor library screening, A375 GP, 10μΜ ([1]; 10μΜ, 72 h) | Cell viability in kinase inhibitor library screening, A375 XP, 1μΜ ([2]; 1μΜ) | Cell viability in kinase inhibitor library screening, A375 XP, 10μΜ ([2]; 10μΜ) | Cell viability in kinase inhibitor library screening, 501Mel XP, 1μΜ ([3]; 1μΜ) | Cell viability in kinase inhibitor library screening, 501Mel XP, 10μΜ ([3]; 10μΜ) | Cell viability in kinase inhibitor library screening, IGR37 Parental, 10μΜ (IGR37 cells (parental); 10μΜ, 72 h) | Cell viability in kinase inhibitor library screening, 501Mel Parental, 10μΜ (501Mel cells (parental); 10μΜ, 72 h) | Cell viability in kinase inhibitor library screening, IGR37 GP, 10μΜ ([4]; 10μΜ) | Cell viability in kinase inhibitor library screening, IGR37 GP, 1μΜ ([4]; 1μΜ) | Cell viability in kinase inhibitor library screening, IGR37 XP, 10μΜ ([5]; 10μΜ, 72 h) | Cell viability in kinase inhibitor library screening, A375 Parental, 10μΜ (A375 cells (parental); 10μΜ) | Cell viability in kinase inhibitor library screening, A375 Parental, 1μΜ (A375 cells (parental); 1μΜ) | Cell viability in kinase inhibitor library screening, 501Mel GP, 1μΜ ([6]; 1μΜ) | Cell viability in kinase inhibitor library screening, 501Mel GP, 10μΜ ([6]; 10μΜ) | cell viability (kinase inhibitor library screening) ([1]; 1μΜ) | cell viability (kinase inhibitor library screening) ([1]; 10μΜ) | cell viability (kinase inhibitor library screening) ([2]; 10μΜ) | cell viability (kinase inhibitor library screening) ([3]; 1μΜ) | cell viability (kinase inhibitor library screening) ([3]; 10μΜ) | cell viability (kinase inhibitor library screening) (IGR37 cells (parental); 1μΜ) | further results
NC(=O)c1ccc(N(C(N)=O)c2c(F)cccc2F)nc1-c1ccc(F)cc1F [VX-702] | 97.2 | 104.7 | 104.6 | 91.5 | 83.4 | 103.3 | 97.1 | 93.6% | 98.3 | 76.8% | 90.0 | 102.7 | 99.8 | 87.7 | – | – | – | – | – | – | –
COc1cc2/c(=N/c3ccc(Br)cc3F)nc[nH]c2cc1OCC1CCN(C)CC1 [Vandetanib (Zactima)] | – | – | – | – | – | – | – | – | – | – | – | – | – | – | 98.8 | 19.2 | 39.3 | 89.6 | -0.445 | 96.5 | cell viability (kinase inhibitor library screening) ([2]; 1μΜ): 103.0; cell viability (kinase inhibitor library screening) (IGR37 cells (parental); 10μΜ): 11.2; cell viability (kinase inhibitor library screening) (501Mel cells (parental); 1μΜ): 98.8; cell viability (kinase inhibitor library screening) (501Mel cells (parental); 10μΜ): 0.4; cell viability (kinase inhibitor library screening) ([4]; 1μΜ): 93.4; cell viability (kinase inhibitor library screening) ([4]; 10μΜ): 31.3; cell viability (kinase inhibitor library screening) ([5]; 1μΜ, in %): 94.5; cell viability (kinase inhibitor library screening) ([5]; 10μΜ, in %): 3.2; cell viability (kinase inhibitor library screening) (A375 cells (parental); 1μΜ): 98.6; cell viability (kinase inhibitor library screening) (A375 cells (parental); 10μΜ): 48.0; cell viability (kinase inhibitor library screening) ([6]; 10μΜ): 0.0201
Cl.Cl.Clc1ccc(Nc2nnc(Cc3ccncc3)c3ccccc23)cc1 [Vatalanib dihydrochloride (PTK787)] | – | – | – | – | – | – | – | – | – | – | – | – | – | – | 96.3 | 92.3 | 99.5 | 94.6 | 73.0 | 118.3 | cell viability (kinase inhibitor library screening) (IGR37 cells (parental); 10μΜ): 92.4; cell viability (kinase inhibitor library screening) (501Mel cells (parental); 1μΜ): 98.6; cell viability (kinase inhibitor library screening) (501Mel cells (parental); 10μΜ): 93.0; cell viability (kinase inhibitor library screening) ([4]; 1μΜ): 95.0; cell viability (kinase inhibitor library screening) ([4]; 10μΜ): 83.6; cell viability (kinase inhibitor library screening) ([5]; 10μΜ, in %): 58.7; cell viability (kinase inhibitor library screening) (A375 cells (parental); 1μΜ): 105.1; cell viability (kinase inhibitor library screening) (A375 cells (parental); 10μΜ): 92.8; cell viability (kinase inhibitor library screening) ([6]; 1μΜ): 106.0; cell viability (kinase inhibitor library screening) ([6]; 10μΜ): 81.7
CCCS(=O)(=O)Nc1ccc(F)c(C(=O)c2c[nH]c3ncc(-c4ccc(Cl)cc4)cc23)c1F [Vemurafenib (PLX4032)] | 68.9 | 98.7 | 76.6 | 94.9 | 68.0 | 34.4 | 61.7 | 88.3% | 94.0 | 67.9% | 14.6 | 28.6 | 104.7 | 81.3 | – | – | – | – | – | – | Cell viability in kinase inhibitor library screening, A375 GP, 1μΜ ([1]; 1μΜ, 72 h): 92.1; Cell viability in kinase inhibitor library screening, IGR37 Parental, 1μΜ (IGR37 cells (parental); 1μΜ, 72 h): 43.2; Cell viability in kinase inhibitor library screening, 501Mel Parental, 1μΜ (501Mel cells (parental); 1μΜ, 72 h): 65.5; Cell viability in kinase inhibitor library screening, IGR37 XP, 1μΜ ([5]; 1μΜ, 72 h, in %): 97.0
